Active and inactive are the calls of the source.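 The calls were made as follows: active = compounds giving half or more protection of infected cells from virus-caused growth loss, again on retest; inactive = the rest.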
System: CEM cells HIV-1 protection, formazan growth assay
Assay: NCI AIDS Antiviral Assay
Conditions: for IC50: measured here: growth of uninfected CEM cells
Summary of the method: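 Category rules: moderately active means at least 50% protection on retest, and confirmed active means 100% protection reproducibly. The underlying data came from a formazan growth assay in HIV-1-infected CEM cells.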

SMILES	EC50 [µM]	IC50 [µM]	outcome
CCOC(=O)CCC(NC(=O)c1ccc(OCc2ccc3nc(-c4ccccc4)c(Cl)nc3c2)cc1)C(=O)OCC (stereo not drawn)	> 200	43.7	
Nc1ncc(Br)c(NCC2(CO)CCC2)n1	> 200	15.8	
NC(=S)Nc1cc(Cl)ccc1Cl	> 32.4	> 32.4	
CCN(CC)C(=C(C(Cl)=C(Cl)Cl)[N+](=O)[O-])N(CC)CC	> 200	117	
CC1(C)CCCOc2cccc(c2)OCCCC(C)(C)C1=O	> 200	> 200	
CCC(NC(C)c1ccccc1)C(=O)c1ccc(OCc2ccccc2)c(OCc2ccccc2)c1 (stereo not drawn)	> 200	> 200	
CC(C)(C)OC(=O)CN1CCNCCN(CC(=O)OC(C)(C)C)CC1	> 200	38	
Cc1ccc(S(=O)(=O)NC(=O)OC23COCN2COC3)cc1	> 759	132	
CC(=O)Nc1sc(Br)cc1S(=O)(=O)c1ccc(Cl)cc1	> 200	31.6	
COC(=O)c1ccc(Cc2cc(Cc3ccc(C(=O)OC)cc3)cc(Cc3ccc(C(=O)OC)cc3)c2)cc1	> 25.1	> 25.1	
O=C(NCCN1CCCCC1)c1ccc(I)cc1	> 200	> 200	
C[n+]1c2ccccc2n2c3ccccc3c(NCCc3ccccn3)c(C#N)c21	> 20	1.29	
CC(C1CCCC1=O)C1CCCC1=O (stereo not drawn)			inactive
CC12C(C(=O)O)C(=O)C(C(=O)O)C1(C)C(C(=O)O)C(=O)C2C(=O)O (stereo not drawn)	> 525	398	
COC(=O)[C@@H]1C[C@@H](OS(=O)(=O)c2ccc(C)cc2)CN1S(=O)(=O)c1ccc(C)cc1	> 200	33.9	
COc1cc2c(cc1C)n(O)c(C)c(C(=O)C/C(=N/NC(=O)C[N+](C)(C)C)C(=O)Nc1cccc(Cl)c1C)[n+]2=O	> 12	> 12	
Cc1ccc(/C=C/C(=O)c2sc(-c3cccnc3)nc2C)cc1	> 22.4	> 22.4	
COc1cc(C2C3C=CC=C4CC=CC(=C43)C3CCC(=O)N32)cc(OC)c1OC (stereo not drawn)	> 200	> 200	
O=c1n(N=S(=O)(c2ccccc2)c2ccccc2)c(=O)n2n1C1C=CC2CC1	> 200	> 200	
O=C(c1cccs1)N(C(=O)N1CCCCC1)c1ccccc1	> 200	112	
CCOP(=S)(OCC)Oc1ccc2c(c1)OC(=O)C1(Cl)C2(C)C2(Cl)C(=O)Oc3cc(OP(=S)(OCC)OCC)ccc3C12C (stereo not drawn)	> 18.6	> 18.6	

SMILES	EC50 [µM]	IC50 [µM]	outcome
NC(=O)NCCCC(NC(=O)OCCCCn1ccc(=O)[nH]c1=O)C(=O)O (stereo not drawn)	> 200	> 200	
O=C(O)C1CC=CCC1c1c2ccc(=O)cc-2oc2cc(O)ccc12 (stereo not drawn)	3.98	141	
O=C1NC(=O)C(=CN2C(=O)/C(=C/c3ccc([N+](=O)[O-])cc3)SC2=S)C(=O)N1	> 200	115	
COC(=O)C(=O)C(C(=O)C(=O)Nc1ccc(Cl)cc1C)c1nc2ccc(C(=O)c3ccccc3)cc2[nH]c1=O (stereo not drawn)			inactive
O=C(O)/C=C/C(=O)Nc1ccccc1-n1cccc1	> 200	> 200	
O=C1C=C(N2CCOCC2)C(=O)c2nccnc21	> 15.5	10.2	
C/C(=N\NC(=O)C[n+]1ccccc1)c1sc(-c2nc(C)c(/C(C)=N/NC(=O)C[n+]3ccccc3)s2)nc1C	> 30.2	> 30.2	
CCOC(=O)/C(=C/N1C(=O)/C(=C/c2cccc([N+](=O)[O-])c2)SC1=S)C(=O)c1ccccc1	> 200	18.6	
COc1ccc(CN2C(=O)C(=O)N(C)C2=O)c2ccccc12	> 200	25.7	
CCOC(=O)c1nc2ccccc2nc1Oc1cc(OC)cc(OC)c1	> 200	> 200	
N.N.N.N.N.N.O=N[O-].[Br-].[Co+3].[Co+3].[OH3+].[OH3+]			inactive
CCOC(=O)[C@]12C(=C(c3ccccc3)O[C@H]3C=CCC[C@H]31)C(=O)C(=O)N2c1ccccc1	> 200	75.9	
C/C(CCn1[nH]c(=O)ccc1=O)=N\O	> 1070	> 1070	
OC1COc2c3ccccc3nn2C1 (stereo not drawn)	> 1320	871	
CCCN(CCCC(NC(C)=O)C(=O)NCc1ccccc1)C(=O)N(CCCl)N=O (stereo not drawn)			inactive
CC(=O)C(C)(CCC(=O)O)CCC(=O)O	> 955	> 955	
O=C(/C=C/c1cccs1)c1ccc([N+](=O)[O-])cc1	> 200		
CCN1CCC(O)(/C=C/c2cccc(C)c2)C(C(=O)/C=C/c2cccc(C)c2)C1 (stereo not drawn)	> 200	3.55	
O=C(O)c1ccc(-c2ccc(C(=C(F)F)C(F)(F)F)cc2)cc1			inactive
COc1cccc(NC(=O)CC(=O)NN2C(=O)/C(=C/c3ccc(N(CCC#N)CCC#N)cc3)N=C2c2cc([N+](=O)[O-])ccc2Cl)c1	> 11	7.24	
O=C1C(c2ccccc2)=C(c2ccccc2)C(c2ccc(CCCCCCc3ccc(C4=C(c5ccccc5)C(=O)C(c5ccccc5)=C4c4ccccc4)cc3)cc2)=C1c1ccccc1	> 1.23	> 1.23	

SMILES	EC50 [µM]	IC50 [µM]	outcome
CCCCCCCCCCCCCCCCOC1N(C2CC(N=[N+]=[N-])C(CO)O2)C(=O)NC(=O)[C@]1(C)Cl (stereo partly drawn)	> 200	31.6	
Cc1noc2cccc(O)c12			inactive
O=C(/C=C/c1ccccc1)NCCC1(O)C(=O)Nc2ccccc21 (stereo not drawn)	> 562	525	
CCOc1ccccc1NC(=O)CC1SC(=Nc2ccc([N+](=O)[O-])cc2)NC1=O (stereo not drawn)	> 229	93.3	
CCOC(=O)/C(C#N)=C/c1ccccc1Br			inactive
N#C/C(C(=S)NCc1ccccc1)=C(/N)N1CCCC1	> 200	148	
C[C@@H]1C[C@@H](O)[C@]2(O)O[C@@H]3C[C@@]4(C=O)[C@@H](CC[C@@H]5[C@@H]4CC[C@]4(C)[C@@H](C6=CC(=O)OC6)CC[C@]54O)C[C@H]3O[C@@H]2O1	> 468	1.82	
CC(=O)[O-].Cc1ccnc(NS(=O)(=O)c2ccc(N=Cc3ccccc3[O-])cc2)n1.Cc1ccnc(NS(=O)(=O)c2ccc(N=Cc3ccccc3[O-])cc2)n1.[Co+2].[H+]	> 200	10.5	
O=C(O/C(=C(/N=Nc1ccccc1)c1ccccc1)c1ccccc1)c1ccccc1			inactive
O=c1oc2ccccc2c2c1SC(c1ccncc1)C2 (stereo not drawn)	> 200	> 200	
CC1=NN(c2nc(N)nc(CSc3cc(Cl)c(C)cc3S(N)(=O)=O)n2)C(C)(C)C1			inactive
C=C1C(=O)OC2CC(C)C3C=CC(=O)C3CC12 (stereo not drawn)	> 200	0.537	
COC(=O)c1ccccc1C1CN=NC12Cc1cc(C)c(C)cc1C2=O (stereo not drawn)	> 138	> 138	
Cc1nnc(NS(=O)(=O)c2ccc(N=Nc3c(N)n(C)c(=O)n(C)c3=O)cc2)s1			inactive
O=S1(=O)CCN(Cc2ccccc2)/C1=N\S(=O)(=O)c1ccc(Cl)cc1	> 200	17	
C/C(=N/OC(=O)N(C)C)c1ccc(Cl)c(Cl)c1	> 200	102	
Cc1ccc(S(=O)(=O)Nn2c(S)c(C#N)c(-c3ccc(N(C)C)cc3)c(C#N)c2=O)cc1	> 200	7.76	
COc1ccc(C2S/C(=C\c3ccc(OC)cc3OC)C(=O)N2NC(=O)Cc2ccccc2)cc1 (stereo not drawn)	> 52.5	> 52.5	
O=C(/C=C/c1ccc(Cl)cc1)c1ccccc1	> 56.2	11.2	
CCN(CC)CCCCC1CCN(CC(=O)N2c3ccccc3NC(=O)c3ccccc32)CC1	> 282	158	
CN1CC(C)(C)C(O)c2ccccc21 (stereo not drawn)	> 955	525	

SMILES	EC50 [µM]	IC50 [µM]	outcome
O=C1NC(=O)N2CC(CI)OC2C1c1ccccc1 (stereo not drawn)	> 97.7	> 97.7	
NC(=S)C1=C(N)Oc2c(c(=O)oc3ccccc23)C1c1ccc(Br)cc1 (stereo not drawn)	> 200	126	
COC(=O)Cc1cc(=O)oc2c1C(=O)CCC2			inactive
CCOC(=O)C1C(C(C)C)C2(C#N)C(=N)OC1(C)C2(C#N)C#N (stereo not drawn)	> 200	49	
CC1=C(C(=O)Nc2ccccc2C)C(c2ccccc2)C(C(=O)Nc2ccccc2C)=C(C)N1	> 11.5	> 11.5	
O=C(O)c1ccccc1-c1c2ccc(=O)c(Cl)c-2oc2c(Cl)c(O)ccc12	17.8	56.2	
COC(=O)/C=C/c1c(=O)c(C(=O)OC)cn2cnc3nc[nH]c3c12	> 50.1	> 50.1	
N/C(=N/N=C/c1ccc2ccccc2n1)NO			inactive
Cc1cn(C2C=CC(COP(=O)(OCC(=O)C(C)(C)C)OCC(=O)C(C)(C)C)O2)c(=O)[nH]c1=O (stereo not drawn)	1.29	> 200	
CC/C(=N/O)c1ccc(Br)s1			inactive
Cc1ccc(S(=O)(=O)NCCSCCNS(=O)(=O)c2ccc(C)cc2)cc1	> 575	> 575	
CC(CCC(=O)O)[C@H]1CCC2[C@@H]3CC[C@@H]4CC(O)CC[C@]4(C)C3CC[C@@]21C (stereo partly drawn)	> 200	> 100	
CCCCCCCC(=O)c1c(O)c2ccccc2oc1=O	> 200	26.9	
O=c1c2cccnc2cc(-c2ccccc2)n1CCO	> 200	> 200	
Cc1cn(C2CC(O)C(CN(O)CCC3CC(n4cc(C)c(=O)[nH]c4=O)OC3CO)O2)c(=O)[nH]c1=O (stereo not drawn)	> 200	> 200	
COC(=O)C1CC2c3[nH]c4ccccc4c3CCN2C1 (stereo not drawn)	> 275	> 275	
CC(=O)Nc1ccc(NC(=O)CC(=O)Nc2ccc(NC(C)=O)cc2)cc1	> 200	> 200	
Cc1ccc(N=N/C(=N/NC(=O)c2ccccc2)c2ccc(N(CCC#N)CCC#N)cc2C)cc1	> 200	14.8	
COc1ccc(N=C(C)C(C)=Nc2ccc(OC)cc2)cc1			inactive
COC1=CC(=O)C(O)=C(C[C@@]2(C)C3CCCC(C)(C)C3=CC[C@@H]2C)C1=O (stereo partly drawn)	> 363	19.5	
Cc1ccc2ccc3c(-c4ccccc4)cc(C)nc3c2n1.Cc1ccc2ccc3c(-c4ccccc4)cc(C)nc3c2n1.O=C1OC(C(O)C[O-])C(O)=C1O.[Cu+]	> 12.6	0.55	

From PubChem BioAssay AID179 (DTP/NCI, 2004)
